Read-outs that look alike come from different tables or passages of the source.
Key:
Type in all cases: cell-based
Bifidobacteria = assay: In vitro antibiotic susceptibility strip test, Bifidobacteria; conditions: colonies from feces of ob/ob mice; for Susceptibility class, Bifidobacteria: MRS/cystein agar, strip test; for Count in brackets, Bifidobacteria: fraction given, not defined
Lactobacillus = assay: In vitro antibiotic susceptibility strip test, Lactobacillus; conditions: colonies from feces of ob/ob mice; for Susceptibility class, Lactobacillus: MRS/cystein agar, strip test; for Count in brackets, Lactobacillus: fraction given, not defined
Enterobacteria = assay: In vitro antibiotic susceptibility strip test, Enterobacteria; conditions: for Susceptibility class, Enterobacteria / Count in brackets, Enterobacteria: colonies from feces of ob/ob mice; for Susceptibility class, Enterobacteria: Mueller Hinton agar, strip test; for Count in brackets, Enterobacteria: fraction given, not defined; for Growth / susceptibility of fecal enterobacteria, in words: summary of Table 1
Bacteroides = assay: In vitro antibiotic susceptibility strip test, Bacteroides; conditions: for Count in brackets, Bacteroides: fraction given, not defined
[1] = colonies from feces of ob/ob mice
[2] = colonies from feces of ob/ob mice, Brucella agar, strip test

Row | SMILES | Susceptibility class, Bifidobacteria (Bifidobacteria) | Count in brackets, Bifidobacteria (Bifidobacteria) | Susceptibility class, Lactobacillus (Lactobacillus) | Count in brackets, Lactobacillus (Lactobacillus) | Susceptibility class, Enterobacteria (Enterobacteria) | Count in brackets, Enterobacteria (Enterobacteria) | Growth / susceptibility of fecal enterobacteria, in words (Enterobacteria) | Susceptibility class, Bacteroides (Bacteroides) | Count in brackets, Bacteroides (Bacteroides; [1]) | Susceptibility class, Bacteroides (Bacteroides; [2])
1 | CC1(C)S[C@@H]2[C@H](NC(=O)[C@H](N)c3ccc(O)cc3)C(=O)N2[C@H]1C(=O)O [Amoxicillin, amoxicillin] | S | 3/3 | S | 33/33 | R | 0/19 | resistant | S/R (14/16) | S/R (14/16) | –
2 | CC1(C)S[C@@H]2[C@H](NC(=O)[C@H](N)c3ccccc3)C(=O)N2[C@H]1C(=O)O [Ampicillin, ampicillin] | S | 3/3 | S | 33/33 | S/R | 13/19 | only partially sensitive | – | 16/16 | S
3 | CCn1cc(C(=O)O)c(=O)c2cc(F)c(N3CCNCC3)cc21 [Norfloxacin, norfloxacin] | R | 0/3 | S/R | 25/33 | S | 19/19 | capable of suppressing the growth | – | 0/16 | R

Source: patent US8591880B2, “Gut flora and weight management” (priority 2007, dated 2013)
